Test results reported in ChEMBL document CHEMBL1201862, “PubChem BioAssay data set” (2004).
Structures can show the parent of a compound that is named as a salt. Blank lines part the entries; values can stand above or below the molecule they belong to. Calls of active or inactive are those of the source.

Experiments:
SUMO-activating enzyme [1] = biological target: T1, SUMO-activating enzyme (Homo sapiens, UniProt Q9UBT2); assay: blockers of SAE1/SAE2–UBC9 SUMO transfer – biochemical, HTRF, uHTS, primary screen (AID 2006); type: protein-complex assay
SUMO-activating enzyme [2] = biological target: T1, SUMO-activating enzyme; assay: blockers of UBC9-mediated SUMO conjugation – biochemical, AlphaScreen, SUMOylation inhibitor project, confirmation (AID 2018); type: functional
[3] = biological target: T2, Polyadenylate-binding protein 1 (Homo sapiens, UniProt P11940); assay: MLLE binding blockers, Cy5 peptide tracer – biochemical, fluorescence polarization, Cy5-PAM2 peptide, secondary, miRNA deadenylation inhibitor project, dose response (AID 602260); type: functional; details: read-out: IC50_Mean
[4] = biological target: T3, Intestinal-type alkaline phosphatase (Homo sapiens, UniProt P09923); assay: human intestinal alkaline phosphatase activators, dose response, biochemical, luminescence, uHTS hits (AID 463120); type: functional
[5] = biological target: Intestinal-type alkaline phosphatase (Mus musculus, UniProt P24822); assay: PubChem AID 488874; type: functional
[6] = bead-based luminescence quenchers, dual-tagged ARNT – biochemical, AlphaScreen, cherry-pick, artefact control for ARNT-TACC3 interaction inhibitor project, dose response (AID 651705); type: functional;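 also: AlphaScreen bead proximity signal that flags compounds interfering with the detection technology; potency reflects signal decrease which marks the compound as an assay artifact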
[7] = biological target: T4, Alkaline phosphatase, tissue-nonspecific isozyme (Homo sapiens, UniProt P05186); assay: activation of tissue-nonspecific alkaline phosphatase – biochemical, TNAP isozyme, human IAP uHTS hits, selectivity assay for human IAP activator project, dose response (AID 488886); type: functional;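 also: potency of compounds raising TNAP activity as a selectivity check on IAP activators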
T4 sequence (P05186 whole entry): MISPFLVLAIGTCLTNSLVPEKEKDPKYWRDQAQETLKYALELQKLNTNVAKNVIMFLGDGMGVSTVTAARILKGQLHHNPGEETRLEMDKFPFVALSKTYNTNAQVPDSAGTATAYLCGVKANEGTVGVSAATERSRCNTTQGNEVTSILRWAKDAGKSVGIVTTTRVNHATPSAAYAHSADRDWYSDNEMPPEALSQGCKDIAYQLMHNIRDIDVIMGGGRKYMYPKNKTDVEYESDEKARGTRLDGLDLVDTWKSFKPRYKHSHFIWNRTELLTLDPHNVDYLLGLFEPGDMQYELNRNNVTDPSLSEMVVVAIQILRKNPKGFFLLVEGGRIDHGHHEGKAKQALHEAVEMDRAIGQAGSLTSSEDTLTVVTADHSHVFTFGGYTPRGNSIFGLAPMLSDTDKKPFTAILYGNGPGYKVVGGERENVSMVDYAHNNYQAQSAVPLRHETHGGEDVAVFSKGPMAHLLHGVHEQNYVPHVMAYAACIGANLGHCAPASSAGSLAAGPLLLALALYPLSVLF

[8] = biological target: T5, Zinc finger protein mex-5 (Caenorhabditis elegans, UniProt Q9XUB2); assay: potency of MEX-5 RNA-binding blockers – biochemical, C. elegans, fluorescence polarization, dose response (AID 1960)
T5 sequence (Q9XUB2 whole entry): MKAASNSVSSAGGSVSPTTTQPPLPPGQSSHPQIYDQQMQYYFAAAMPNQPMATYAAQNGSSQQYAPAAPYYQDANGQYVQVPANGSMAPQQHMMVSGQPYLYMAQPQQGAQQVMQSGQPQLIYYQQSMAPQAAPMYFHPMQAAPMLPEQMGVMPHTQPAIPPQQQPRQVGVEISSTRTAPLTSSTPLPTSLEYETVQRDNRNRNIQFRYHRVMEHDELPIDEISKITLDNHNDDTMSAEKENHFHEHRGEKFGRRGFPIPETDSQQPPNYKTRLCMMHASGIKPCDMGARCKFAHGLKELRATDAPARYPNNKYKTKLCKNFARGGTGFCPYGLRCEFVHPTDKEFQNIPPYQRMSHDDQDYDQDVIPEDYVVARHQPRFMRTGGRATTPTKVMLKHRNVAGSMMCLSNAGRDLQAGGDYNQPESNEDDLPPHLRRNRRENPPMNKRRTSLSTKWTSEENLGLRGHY

[9] = biological target: T3, Intestinal-type alkaline phosphatase; assay: activation of human intestinal alkaline phosphatase – biochemical, luminescent, uHTS hits, set 2, dose response (AID 488817); type: functional;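 also: potency of activators that raise enzyme activity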
[10] = biological target: T2, Polyadenylate-binding protein 1; assay: MLLE domain peptide-binding blockers, IC50 – biochemical, fluorescence polarization, FITC-PAM2 peptide, dose response (AID 602259); type: functional; details: read-out: IC50_Mean
[11] = biological target: T6, RNA-binding protein pos-1 (Caenorhabditis elegans, UniProt G5EF15); assay: disruptors of C. elegans POS-1 RNA interaction – biochemical, fluorescence polarization, dose response (AID 1964);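 also: purified POS-1 fused to maltose binding protein made in E. coli; potency of compounds blocking POS-1 binding to fluorescent RNA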
T6 sequence (G5EF15 whole entry): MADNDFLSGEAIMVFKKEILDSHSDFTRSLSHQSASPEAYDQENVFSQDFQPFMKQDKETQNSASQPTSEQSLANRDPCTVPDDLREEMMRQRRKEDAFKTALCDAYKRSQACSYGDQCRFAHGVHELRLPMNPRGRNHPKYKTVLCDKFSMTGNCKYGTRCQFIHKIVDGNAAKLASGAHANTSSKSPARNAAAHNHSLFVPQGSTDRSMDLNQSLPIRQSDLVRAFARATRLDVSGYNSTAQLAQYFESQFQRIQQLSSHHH

[12] = fluconazole-exposed Candida albicans growth modulators – fluorescence, retest, confirmation (AID 2467); type: functional, cell-based
Saccharomyces cerevisiae = assay: S. cerevisiae Caspase-1/ASC signal blockers IC50, NALP1 inhibitor project selectivity test (AID 488863); type: functional, organism-based
[13] = NIH3T3 cell viability loss – ATP luminescence, mouse fibroblasts, counter-screen, dose response (AID 2010); type: functional, cell-based;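 also: cells exposed to compound for about 90 hours before reading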
[14] = biological target: Heat shock protein HSP 90-alpha (Homo sapiens, UniProt P07900); type: functional, organism-based
[15] = viability of HCT116 lacking mutant beta-catenin – cell-based, human colon tumor, dose response (AID 1045); type: functional;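 also: HCT116 colon tumor cells with beta catenin knocked out; cells exposed to compound for 60 hours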
[16] = viability of PTEN-deleted HCT116 cells – cell-based, HCT116 PTEN knockout, dose response (AID 1047); type: functional;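 also: HCT116 colon tumor cells with PTEN knocked out; cells exposed to compound for 60 hours before readout; potency for loss of cell viability measured by luminescence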
[17] = biological target: NACHT, LRR and PYD domains-containing protein 1 (Homo sapiens, UniProt Q9C000); assay: NALP1 inhibitors in yeast, dose response, luminescent (AID 488860); type: functional
[18] = Trypanosoma cruzi growth suppression in host cells – NIH3T3 host cells, beta-gal luminescence, confirmation (AID 2044); type: functional, cell-based;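 also: intracellular parasites grown in NIH/3T3 mouse fibroblasts as host cells; luminescent beta-galactosidase reporter signal from transgenic T. cruzi replicating inside host cells; inhibitors lower the luminescence signal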
[19] = NIH-3T3 fibroblast cytotoxicity, dose response, cytotoxicity control, cell-based, fluorescence, Alamar Blue, secondary assay (AID 2327); type: functional;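 also: NIH-3T3 mouse fibroblasts cultured with fluconazole at 8 µg/mL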
[20] = biological target: Potassium voltage-gated channel subfamily KQT member 2 (Rattus norvegicus, UniProt O88943); assay: potentiation of rat KCNQ2 current – cell-based, retigabine-insensitive compounds, dose response (AID 2654); type: functional
Sequence of Potassium voltage-gated channel subfamily KQT member 2 (O88943 whole entry): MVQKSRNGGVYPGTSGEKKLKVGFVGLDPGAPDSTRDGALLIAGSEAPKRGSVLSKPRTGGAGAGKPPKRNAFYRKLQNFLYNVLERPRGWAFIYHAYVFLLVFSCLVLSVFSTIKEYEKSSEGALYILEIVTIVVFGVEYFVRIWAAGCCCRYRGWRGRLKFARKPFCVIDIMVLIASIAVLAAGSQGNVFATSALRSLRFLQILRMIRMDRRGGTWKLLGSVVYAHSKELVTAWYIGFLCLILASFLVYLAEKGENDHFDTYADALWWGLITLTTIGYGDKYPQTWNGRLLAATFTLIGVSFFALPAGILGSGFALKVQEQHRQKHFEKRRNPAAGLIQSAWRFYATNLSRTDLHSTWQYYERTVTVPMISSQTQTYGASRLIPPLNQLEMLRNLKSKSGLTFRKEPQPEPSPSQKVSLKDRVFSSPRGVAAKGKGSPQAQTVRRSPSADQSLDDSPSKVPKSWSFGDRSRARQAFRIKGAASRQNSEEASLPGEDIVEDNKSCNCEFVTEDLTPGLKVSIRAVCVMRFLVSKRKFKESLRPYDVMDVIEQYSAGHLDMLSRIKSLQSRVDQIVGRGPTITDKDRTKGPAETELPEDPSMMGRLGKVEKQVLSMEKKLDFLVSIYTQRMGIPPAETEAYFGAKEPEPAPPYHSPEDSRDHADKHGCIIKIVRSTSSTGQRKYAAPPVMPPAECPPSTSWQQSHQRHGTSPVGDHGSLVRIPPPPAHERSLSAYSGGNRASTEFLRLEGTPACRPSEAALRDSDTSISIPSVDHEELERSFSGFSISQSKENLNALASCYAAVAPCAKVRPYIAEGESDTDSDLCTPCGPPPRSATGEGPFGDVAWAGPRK

T3 sequence (P09923 whole entry): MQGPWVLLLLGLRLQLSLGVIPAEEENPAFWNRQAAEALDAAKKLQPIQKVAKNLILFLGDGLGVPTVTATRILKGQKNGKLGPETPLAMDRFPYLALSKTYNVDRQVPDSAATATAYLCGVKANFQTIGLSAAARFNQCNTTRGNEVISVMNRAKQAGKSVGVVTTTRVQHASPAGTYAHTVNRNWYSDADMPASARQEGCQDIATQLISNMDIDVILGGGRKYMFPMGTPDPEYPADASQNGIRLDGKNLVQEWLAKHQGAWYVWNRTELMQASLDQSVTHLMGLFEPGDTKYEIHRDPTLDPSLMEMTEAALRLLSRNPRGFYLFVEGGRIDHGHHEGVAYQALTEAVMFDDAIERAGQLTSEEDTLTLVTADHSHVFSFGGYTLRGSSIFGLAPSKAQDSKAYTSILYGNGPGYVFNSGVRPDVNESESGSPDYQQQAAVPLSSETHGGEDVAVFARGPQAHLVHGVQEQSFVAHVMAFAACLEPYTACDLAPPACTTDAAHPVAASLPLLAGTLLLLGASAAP
T2 sequence (P11940 whole entry): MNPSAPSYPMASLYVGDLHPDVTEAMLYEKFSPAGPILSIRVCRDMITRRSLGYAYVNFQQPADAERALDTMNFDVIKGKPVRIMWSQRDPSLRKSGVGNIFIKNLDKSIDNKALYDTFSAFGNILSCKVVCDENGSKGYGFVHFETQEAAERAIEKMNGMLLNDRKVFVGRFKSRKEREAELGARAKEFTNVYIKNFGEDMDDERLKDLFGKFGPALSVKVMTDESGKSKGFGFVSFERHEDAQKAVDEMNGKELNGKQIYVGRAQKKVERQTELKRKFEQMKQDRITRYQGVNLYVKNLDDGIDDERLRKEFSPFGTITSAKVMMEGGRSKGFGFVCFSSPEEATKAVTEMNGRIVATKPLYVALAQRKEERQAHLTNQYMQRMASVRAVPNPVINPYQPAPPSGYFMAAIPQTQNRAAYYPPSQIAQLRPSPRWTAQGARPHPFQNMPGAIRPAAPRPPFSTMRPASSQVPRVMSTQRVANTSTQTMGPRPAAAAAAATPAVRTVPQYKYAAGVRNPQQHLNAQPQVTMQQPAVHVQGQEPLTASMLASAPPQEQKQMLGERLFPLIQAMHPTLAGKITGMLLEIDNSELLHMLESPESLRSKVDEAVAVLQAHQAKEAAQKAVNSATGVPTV
T1 sequence (Q9UBE0 whole entry): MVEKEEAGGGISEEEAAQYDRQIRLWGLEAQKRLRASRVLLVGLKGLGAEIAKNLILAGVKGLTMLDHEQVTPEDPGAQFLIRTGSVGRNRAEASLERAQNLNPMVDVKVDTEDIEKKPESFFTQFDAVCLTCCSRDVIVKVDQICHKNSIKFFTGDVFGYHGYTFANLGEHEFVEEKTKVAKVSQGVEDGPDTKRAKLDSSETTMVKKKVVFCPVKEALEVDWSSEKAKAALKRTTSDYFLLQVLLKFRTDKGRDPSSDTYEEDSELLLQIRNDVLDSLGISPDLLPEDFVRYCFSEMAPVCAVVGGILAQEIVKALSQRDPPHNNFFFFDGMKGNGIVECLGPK
T1 sequence (Q9UBT2 whole entry): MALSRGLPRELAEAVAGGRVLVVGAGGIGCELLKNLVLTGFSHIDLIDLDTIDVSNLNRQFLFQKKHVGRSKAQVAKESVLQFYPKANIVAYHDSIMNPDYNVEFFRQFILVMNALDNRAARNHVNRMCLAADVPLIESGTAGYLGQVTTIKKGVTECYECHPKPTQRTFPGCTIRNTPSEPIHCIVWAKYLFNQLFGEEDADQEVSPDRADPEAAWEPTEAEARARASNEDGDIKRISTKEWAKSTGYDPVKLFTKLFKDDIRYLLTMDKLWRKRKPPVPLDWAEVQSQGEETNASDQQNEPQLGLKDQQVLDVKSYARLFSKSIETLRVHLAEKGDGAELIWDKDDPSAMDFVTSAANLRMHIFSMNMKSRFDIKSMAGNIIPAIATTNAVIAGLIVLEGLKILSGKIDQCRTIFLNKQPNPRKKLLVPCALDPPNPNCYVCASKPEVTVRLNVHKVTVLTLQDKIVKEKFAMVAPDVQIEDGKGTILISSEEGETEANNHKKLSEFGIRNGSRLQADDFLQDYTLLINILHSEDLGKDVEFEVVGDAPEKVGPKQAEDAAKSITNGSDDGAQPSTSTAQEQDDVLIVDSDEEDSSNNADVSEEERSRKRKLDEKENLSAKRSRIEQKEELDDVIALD
Sequence of Intestinal-type alkaline phosphatase (Mus musculus, UniProt P24822) (P24822 whole entry): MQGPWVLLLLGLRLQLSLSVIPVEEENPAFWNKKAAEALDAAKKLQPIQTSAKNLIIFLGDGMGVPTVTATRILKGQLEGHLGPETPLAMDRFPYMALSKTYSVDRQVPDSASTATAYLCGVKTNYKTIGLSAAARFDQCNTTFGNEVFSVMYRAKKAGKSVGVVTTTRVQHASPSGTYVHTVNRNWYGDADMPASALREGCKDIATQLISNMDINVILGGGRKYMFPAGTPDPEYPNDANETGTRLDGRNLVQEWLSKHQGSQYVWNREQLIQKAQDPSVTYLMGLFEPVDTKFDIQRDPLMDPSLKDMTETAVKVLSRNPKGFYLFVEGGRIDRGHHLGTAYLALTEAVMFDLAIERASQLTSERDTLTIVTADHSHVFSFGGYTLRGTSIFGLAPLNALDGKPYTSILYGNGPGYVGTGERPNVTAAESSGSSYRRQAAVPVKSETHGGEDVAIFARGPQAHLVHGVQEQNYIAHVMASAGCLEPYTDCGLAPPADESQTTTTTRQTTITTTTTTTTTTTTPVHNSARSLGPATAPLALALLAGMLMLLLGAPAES
Sequence of NACHT, LRR and PYD domains-containing protein 1 (Q9C000 1-1212 limits assumed): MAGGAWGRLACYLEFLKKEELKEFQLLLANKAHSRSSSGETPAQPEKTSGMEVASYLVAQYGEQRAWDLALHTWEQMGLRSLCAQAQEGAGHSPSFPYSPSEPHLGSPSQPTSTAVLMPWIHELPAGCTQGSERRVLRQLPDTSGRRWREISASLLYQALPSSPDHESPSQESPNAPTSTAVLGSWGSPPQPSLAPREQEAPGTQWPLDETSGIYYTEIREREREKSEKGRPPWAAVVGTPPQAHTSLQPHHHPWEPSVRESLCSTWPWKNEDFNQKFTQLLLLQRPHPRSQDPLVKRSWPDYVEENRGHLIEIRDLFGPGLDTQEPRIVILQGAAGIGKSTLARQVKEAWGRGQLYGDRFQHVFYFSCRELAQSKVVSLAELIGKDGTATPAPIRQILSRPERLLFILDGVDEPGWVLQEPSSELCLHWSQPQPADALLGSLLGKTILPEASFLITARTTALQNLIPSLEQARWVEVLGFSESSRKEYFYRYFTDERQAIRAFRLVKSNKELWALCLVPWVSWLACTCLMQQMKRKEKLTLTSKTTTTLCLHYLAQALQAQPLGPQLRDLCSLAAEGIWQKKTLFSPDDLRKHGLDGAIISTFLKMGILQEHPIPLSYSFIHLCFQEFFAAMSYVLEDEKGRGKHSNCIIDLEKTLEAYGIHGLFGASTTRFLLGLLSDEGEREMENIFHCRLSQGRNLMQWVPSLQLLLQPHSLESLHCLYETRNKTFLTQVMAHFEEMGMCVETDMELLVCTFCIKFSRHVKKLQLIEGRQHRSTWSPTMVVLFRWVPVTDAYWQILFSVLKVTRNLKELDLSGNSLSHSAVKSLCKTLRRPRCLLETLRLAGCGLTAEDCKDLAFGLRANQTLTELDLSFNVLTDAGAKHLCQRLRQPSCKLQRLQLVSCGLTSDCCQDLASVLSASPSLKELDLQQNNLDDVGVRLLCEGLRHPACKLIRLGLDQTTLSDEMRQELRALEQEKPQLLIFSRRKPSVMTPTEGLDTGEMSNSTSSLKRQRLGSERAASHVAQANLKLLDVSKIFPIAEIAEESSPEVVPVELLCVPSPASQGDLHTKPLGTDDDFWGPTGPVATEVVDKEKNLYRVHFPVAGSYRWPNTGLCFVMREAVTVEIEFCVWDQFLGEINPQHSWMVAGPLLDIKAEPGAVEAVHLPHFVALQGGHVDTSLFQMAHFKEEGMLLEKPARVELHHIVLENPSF
Sequence of NACHT, LRR and PYD domains-containing protein 1 (Q9C000 1213-1473 limits assumed): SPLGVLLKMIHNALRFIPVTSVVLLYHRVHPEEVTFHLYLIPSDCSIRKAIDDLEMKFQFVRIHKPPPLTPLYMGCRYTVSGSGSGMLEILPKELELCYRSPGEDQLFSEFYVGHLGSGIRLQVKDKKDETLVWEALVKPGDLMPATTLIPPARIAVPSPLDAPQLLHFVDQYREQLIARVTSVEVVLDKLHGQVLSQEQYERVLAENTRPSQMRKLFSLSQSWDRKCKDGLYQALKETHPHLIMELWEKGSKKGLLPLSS

IC50 (SUMO-activating enzyme [1]): 23.2 µM (active)
IC50 (SUMO-activating enzyme [2]): 1.66 µM (active)
IC50 [3]: > 66 µM (inactive)
EC50 [4]: 5.47 µM (active)
IC50 [5]: 50.9 µM (active)
EC50 [7]: > 100 µM (inactive)
EC50 [8]: 0.112 µM (active)
EC50 [9]: 8.88 µM (active)
IC50 [10]: 45 µM (inactive)
EC50 [11]: 37.5 µM (active)
SMILES: NC(CO)C(=O)NNCc1ccc(O)c(O)c1O (stereo unspecified) [BENSERAZIDE HYDROCHLORIDE]
AC50 [6]: 96.7 µM (active)

SMILES: Cc1ccc(-n2nnnc2C(Cl)c2nnnn2-c2ccc(C)cc2)cc1
EC50 [12]: > 38 µM (not active)
IC50 (Saccharomyces cerevisiae): 6.59 µM (active)
EC50 [13]: > 60 µM (not active)
AC50 [14]: 0.635 µM (active)
EC50 [15]: 17.5 µM (active)
EC50 [16]: 17.6 µM (active)
IC50 [17]: 11 µM (active)
EC50 [18]: 3.31 µM (active)
EC50 [19]: > 160 µM (inactive)

EC50 [20]: 16.8 µM (active)
SMILES: Cc1cccc(NC(=O)Nc2cccnc2)c1
